US20170354645A1, “METHODS FOR TREATING KIDNEY DISORDERS” (Eli Lilly and Company, priority 2014, published 2017)

Experiments:
[1] = serum concentration in remnant kidney mice; type: in vivo; details: 129/SvEv, mouse, week 4 of dosing, 24 hours after a 10 mg/kg oral dose, once daily
Description: (§1) The oral vehicle for testing the compound of Formula I is 5% Kolliphor® HS 15, 5% EtOH, NaCMC 1%/SLS 0.5%/Antifoam 0.05%/Povidone 0.085% from Ricca Chemical Company. The sham group is fed a conventional diet (Purina Formulab Diet 5008) and is not dosed with vehicle or the compound of Formula I during the dosing portion of the study. One of the remaining two groups is orally dosed vehicle once daily (10 ml/kg), and the other group is orally dosed once daily with the compound of Formula I at 10 mg/kg, in vehicle. Both dosing groups receive a conventional diet (Purina Formulab Diet 5008) during the dosing portion of the study.
(§2) Spot urine samples are collected on day −7 prior to the dosing portion of the study. Urine samples are taken weekly during the dosing portion of the study. Body weights are measured on days 15, 29, 43, 57, 64, 71, and 78. Blood samples are taken at week 4 of the dosing portion of the study a well as at the study termination (day 84). At week 4 of the dosing portion of the study, the mean serum concentration of the compound of Formula I 24 hours after a 10 mg/kg dose is 49±66 ng/ml.

[2] = tested on: mouse remnant kidney model; experiment: mouse remnant kidney model (5/6th nephrectomy) of chronic renal failure; type: in vivo; details: 10 mg/kg orally once daily
Description: The purpose of this assay is to analyze the compound of Formula I in a mouse chronic renal failure model, and particularly the ability to improve albuminuria and renal histopathological lesions. This assay is known as the mouse remnant kidney model, where following a unilateral nephrectomy, partial surgical removal of approximately ⅓ of the remaining kidney is carried out to replicate chronic renal failure. This model is sometimes also referred to as a “5/6th nephrectomy” model that was originally developed in rat. A description of this model may be found in published US patent application US 2014/0271675 (Qi, et al.) and (Leelahavanichkul, et al. (2010) Kidney Int. 78(11): 1136-1153.
Thirty-five eight to nine week old mice (strain 129/SvEv from Taconic) are employed in the model, and all have surgeries. A sham group having five mice have surgeries where the kidneys are not removed. The mice in the remaining two groups having fifteen mice each undergo remnant surgery. The surgeries take place approximately three weeks prior to the dosing portion of the study. The dosing portion of the study is 85 days long.
as §1, §2

[3] = renal morphology, compared with vehicle treatment

Cc1cc(OCc2c(-c3ccccc3OC(F)(F)F)noc2C2CC2)ccc1-c1ccc2c(C(=O)O)csc2c1 [compound of Formula I, 6-{4-[5-Cyclopropyl-3-(2-trifluoromethoxy-phenyl)-isoxazol-4-ylmethoxy]-2-methyl-phenyl}-benzo[b]thiophene-3-carboxylic acid]
concentration at 24 h [1]: 49 ± 66 ng/mL
reduction in urine ACR (albumin/creatinine ratio) ([2]; remnant mice, observed within 2 weeks, persists through end of 85-day dosing): 32-38%
interstitial inflammation ([2]; renal morphology): mildly reduced
tubular regeneration ([2]; renal morphology): mildly reduced
incidence and severity of glumerulosclerosis [2, 3]: notably reduced
incidence and severity of tubular protein [2, 3]: notably reduced
incidence of tubular changes (dilation, atrophy) [2, 3]: reduced
